Test results published in PMC9021288 (Nature Communications, 2022).
“And” between values parts separate entries of the source, which are not always exact repeats. Identical values can stand only once.

Tests used:
AcAS-cKD P. falciparum = assay: Drug sensitivity of AcAS conditional knockdown parasites; format: cell-based, Plasmodium falciparum; conditions: […] vs 500 nM aTc
Procedure: Replication assays were performed using a SYBR Green method as described previously. Briefly, asynchronous parasites were diluted to 0.83% parasitemia, 3% hematocrit in 30 µl medium, and added to 30 µl of diluted compounds in medium (0.1% DMSO final concentration) in black 384-wells plates. After a 72-h incubation, 30 µl of SYBR Green diluted in lysis buffer was added according to the manufacturer’s protocol (Life Technologies). Fluorescence intensity was measured on a BioTek Synergy 2 Plate Reader after 1-h incubation and was normalized to a DMSO control (100% growth) and DHA- or epoxomicin-treatment (no growth). […] Parasite survival was assessed by flow cytometry on an Accuri C6 (BD Biosciences) with BD C6 Plus software using SYBR Green and MitoTracker Deep Red FM (Life Technologies) as nuclear stain and vital dye, respectively, and data were analyzed using FlowJo (10.5.0). […] Luminescence was measured after 72 h using the Renilla-Glo(R) Luciferase Assay System (Promega E2750) and the GlomAX® Discover Multimode Microplate Reader (Promega). The luminescence values were normalized to DMSO vehicle (100% growth) and 200 nM chloroquine-treated (no growth) samples as controls.

[1] = Blood to plasma ratio, human
3-day MTD2 rat study = format: in vivo, Wistar Han rats; conditions: 300, 600, 1000 mg/kg/day, three days
From the text: See the summary of the study design in Supplementary Table 31. Nine-week-old Wistar (Crl:WI (Han)) rats were obtained from Charles River Laboratories (Domaine des Oncins, Saint-Germain-Nuelles, France). […] Animals were examined daily for any altered clinical signs, body weights, and food consumption. Blood samples were taken at different timepoints after the test item administration, and toxicokinetic exposure assessed under the defined experimental conditions and analyzed using Phoenix (version 6.4 and 1.4) (Supplementary Table 32). Measurements included hematology and clinical chemistry measurements. Animals were euthanized and necropsied at the end of the dosing period. At necropsy, major organ systems and tissues were collected and weighed and then examined for gross lesions as well as for microscopic changes.

[2] = target: T1, panel of human receptors and channels (Homo sapiens, UniProt P23975); format: binding; conditions: norepinephrine transporter (h) (antagonist radioligand); Rep1, Rep2, Mean
T1 construct: purchased Eurofins CEREP

[3] = target: T2, panel of human receptors and channels (Homo sapiens, UniProt P37231); format: binding; conditions: PPARγ (h) (agonist radioligand); Rep1, Rep2, Mean
T2 construct: purchased Eurofins CEREP
T2 sequence (P37231 whole entry): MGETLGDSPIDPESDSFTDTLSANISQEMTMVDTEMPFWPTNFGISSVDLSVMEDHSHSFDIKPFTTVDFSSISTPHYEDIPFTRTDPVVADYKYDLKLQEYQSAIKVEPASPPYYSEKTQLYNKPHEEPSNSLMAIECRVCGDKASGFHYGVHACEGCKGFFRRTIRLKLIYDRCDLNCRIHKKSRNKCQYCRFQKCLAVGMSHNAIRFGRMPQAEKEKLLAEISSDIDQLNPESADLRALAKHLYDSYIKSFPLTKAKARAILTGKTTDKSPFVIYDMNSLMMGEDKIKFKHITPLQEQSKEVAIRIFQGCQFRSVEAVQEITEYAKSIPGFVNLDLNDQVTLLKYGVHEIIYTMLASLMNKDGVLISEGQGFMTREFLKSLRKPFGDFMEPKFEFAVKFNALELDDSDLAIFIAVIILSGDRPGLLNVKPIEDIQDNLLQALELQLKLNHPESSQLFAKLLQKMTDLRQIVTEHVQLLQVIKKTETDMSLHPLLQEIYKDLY

[4] = target: T3, panel of human receptors and channels (Homo sapiens, UniProt P25101); format: binding; conditions: ETA (h) (agonist radioligand); Rep1, Rep2, Mean
T3 construct: purchased Eurofins CEREP

[5] = target: T4, panel of human receptors and channels (Homo sapiens, UniProt P25021); format: binding; conditions: H2 (h) (antagonist radioligand); Rep1, Rep2, Mean
T4 construct: purchased Eurofins CEREP
T4 sequence (P25021 whole entry): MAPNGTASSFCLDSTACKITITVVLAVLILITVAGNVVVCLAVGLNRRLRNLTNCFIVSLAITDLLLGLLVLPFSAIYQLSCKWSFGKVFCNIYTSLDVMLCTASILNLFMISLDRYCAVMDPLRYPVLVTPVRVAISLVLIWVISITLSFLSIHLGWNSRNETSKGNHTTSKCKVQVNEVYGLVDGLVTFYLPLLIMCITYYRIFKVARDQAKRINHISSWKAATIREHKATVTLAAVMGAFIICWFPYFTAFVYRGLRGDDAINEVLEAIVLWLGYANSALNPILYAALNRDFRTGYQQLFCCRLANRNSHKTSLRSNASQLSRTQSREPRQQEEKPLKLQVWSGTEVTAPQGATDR

[6] = target: T5, panel of human receptors and channels (Homo sapiens, UniProt P0DMS8); format: binding; conditions: A3 (h) (agonist radioligand); Rep1, Rep2, Mean
T5 construct: purchased Eurofins CEREP
T5 sequence (P0DMS8 whole entry): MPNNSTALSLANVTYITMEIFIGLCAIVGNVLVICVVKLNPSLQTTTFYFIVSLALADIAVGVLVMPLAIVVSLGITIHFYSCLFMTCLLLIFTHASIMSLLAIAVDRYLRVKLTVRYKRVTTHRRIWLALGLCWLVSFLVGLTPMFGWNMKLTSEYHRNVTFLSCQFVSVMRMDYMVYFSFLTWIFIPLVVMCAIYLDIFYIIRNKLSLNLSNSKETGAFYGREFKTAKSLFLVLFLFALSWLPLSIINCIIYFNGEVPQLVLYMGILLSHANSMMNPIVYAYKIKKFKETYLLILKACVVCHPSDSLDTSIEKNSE

[7] = target: T6, panel of human receptors and channels (Homo sapiens, UniProt P30518); format: binding; conditions: V2 (h) (agonist radioligand); Rep1, Rep2, Mean
T6 construct: purchased Eurofins CEREP
T6 sequence (P30518 whole entry): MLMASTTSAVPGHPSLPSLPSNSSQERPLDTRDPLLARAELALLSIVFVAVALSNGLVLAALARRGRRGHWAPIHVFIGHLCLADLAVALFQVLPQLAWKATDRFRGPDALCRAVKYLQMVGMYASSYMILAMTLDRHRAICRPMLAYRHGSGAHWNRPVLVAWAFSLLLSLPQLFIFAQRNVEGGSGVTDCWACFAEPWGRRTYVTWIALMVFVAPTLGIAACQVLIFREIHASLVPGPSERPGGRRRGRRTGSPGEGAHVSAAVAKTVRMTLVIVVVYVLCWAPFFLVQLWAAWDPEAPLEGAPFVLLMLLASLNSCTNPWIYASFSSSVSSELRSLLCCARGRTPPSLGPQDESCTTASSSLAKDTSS

[8] = target: T7, panel of human receptors and channels (Homo sapiens, UniProt P50052); format: binding; conditions: AT2 (h) (agonist radioligand); Rep1, Rep2, Mean
T7 construct: purchased Eurofins CEREP

[9] = target: T8, panel of human receptors and channels (Homo sapiens, UniProt P31645); format: binding; conditions: 5-HT transporter (h) (antagonist radioligand); Rep1, Rep2, Mean
T8 construct: purchased Eurofins CEREP

[10] = target: T9, panel of human receptors and channels (Homo sapiens, UniProt P35367); format: binding; conditions: H1 (h) (antagonist radioligand); Rep1, Rep2, Mean
T9 construct: purchased Eurofins CEREP
T9 sequence (P35367 whole entry): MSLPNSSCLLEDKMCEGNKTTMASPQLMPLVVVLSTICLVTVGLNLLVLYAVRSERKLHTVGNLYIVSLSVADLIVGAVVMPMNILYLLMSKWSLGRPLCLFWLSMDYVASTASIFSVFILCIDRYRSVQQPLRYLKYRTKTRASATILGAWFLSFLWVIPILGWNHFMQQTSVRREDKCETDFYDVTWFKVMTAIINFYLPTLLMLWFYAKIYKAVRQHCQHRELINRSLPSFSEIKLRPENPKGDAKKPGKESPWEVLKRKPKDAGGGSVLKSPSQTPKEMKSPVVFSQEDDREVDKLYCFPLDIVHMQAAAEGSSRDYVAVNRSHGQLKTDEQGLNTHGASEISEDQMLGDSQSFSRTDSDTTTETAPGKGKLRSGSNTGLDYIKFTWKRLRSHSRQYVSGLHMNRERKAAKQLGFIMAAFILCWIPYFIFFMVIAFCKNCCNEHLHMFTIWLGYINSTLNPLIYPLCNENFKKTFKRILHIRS

[11] = target: T10, panel of human receptors and channels (Homo sapiens, UniProt Q9Y5N1); format: binding; conditions: H3 (h) (agonist radioligand); Rep1, Rep2, Mean
T10 construct: purchased Eurofins CEREP

[12] = target: T11, panel of human receptors and channels (Homo sapiens, UniProt P06401); format: binding; conditions: PR (h) (agonist radioligand); Rep1, Rep2, Mean
T11 construct: purchased Eurofins CEREP
T11 sequence (P06401 whole entry): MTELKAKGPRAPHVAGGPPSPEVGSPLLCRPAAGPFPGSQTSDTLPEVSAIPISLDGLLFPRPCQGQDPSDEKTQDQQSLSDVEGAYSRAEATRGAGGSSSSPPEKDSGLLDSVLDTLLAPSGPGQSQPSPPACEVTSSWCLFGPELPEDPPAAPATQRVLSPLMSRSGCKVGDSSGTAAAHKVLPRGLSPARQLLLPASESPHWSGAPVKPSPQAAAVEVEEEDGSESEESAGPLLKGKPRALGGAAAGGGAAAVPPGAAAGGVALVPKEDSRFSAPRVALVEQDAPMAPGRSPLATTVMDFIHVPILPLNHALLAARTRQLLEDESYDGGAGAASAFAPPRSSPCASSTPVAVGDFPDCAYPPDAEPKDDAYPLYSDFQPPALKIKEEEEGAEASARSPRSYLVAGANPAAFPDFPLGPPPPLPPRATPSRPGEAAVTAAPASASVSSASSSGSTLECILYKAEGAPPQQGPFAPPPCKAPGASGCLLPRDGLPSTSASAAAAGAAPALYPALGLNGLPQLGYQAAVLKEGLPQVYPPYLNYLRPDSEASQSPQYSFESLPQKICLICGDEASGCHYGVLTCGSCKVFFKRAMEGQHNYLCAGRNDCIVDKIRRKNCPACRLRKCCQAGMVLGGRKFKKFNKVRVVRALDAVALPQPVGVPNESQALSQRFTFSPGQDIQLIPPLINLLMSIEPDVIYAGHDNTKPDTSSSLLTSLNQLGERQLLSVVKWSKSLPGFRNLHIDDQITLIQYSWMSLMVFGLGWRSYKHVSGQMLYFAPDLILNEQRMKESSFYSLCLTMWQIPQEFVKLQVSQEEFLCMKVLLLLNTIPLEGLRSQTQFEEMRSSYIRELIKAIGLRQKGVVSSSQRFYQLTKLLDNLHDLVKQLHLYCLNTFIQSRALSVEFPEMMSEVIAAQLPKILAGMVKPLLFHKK

[13] = target: T12, panel of human receptors and channels (Homo sapiens, UniProt Q01959); format: binding; conditions: dopamine transporter (h) (antagonist radioligand); Rep1, Rep2, Mean
T12 construct: purchased Eurofins CEREP

[14] = target: T13, panel of human receptors and channels (Homo sapiens, UniProt P43116); format: binding; conditions: EP2 (h) (agonist radioligand); Rep1, Rep2, Mean
T13 construct: purchased Eurofins CEREP

[15] = target: T14, panel of human receptors and channels (Homo sapiens, UniProt P30411); format: binding; conditions: B2 (h) (agonist radioligand); Rep1, Rep2, Mean
T14 construct: purchased Eurofins CEREP
T14 sequence (P30411 whole entry): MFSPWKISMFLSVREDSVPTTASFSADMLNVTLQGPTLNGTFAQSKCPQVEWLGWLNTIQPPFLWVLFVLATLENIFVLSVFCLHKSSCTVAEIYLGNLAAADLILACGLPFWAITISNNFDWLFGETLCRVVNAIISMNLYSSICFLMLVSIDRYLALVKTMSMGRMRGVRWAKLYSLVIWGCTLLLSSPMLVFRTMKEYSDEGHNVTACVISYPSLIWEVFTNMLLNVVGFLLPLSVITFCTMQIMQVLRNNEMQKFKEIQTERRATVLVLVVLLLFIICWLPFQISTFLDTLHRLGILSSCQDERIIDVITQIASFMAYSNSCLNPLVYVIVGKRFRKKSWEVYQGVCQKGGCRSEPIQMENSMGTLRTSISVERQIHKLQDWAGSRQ

[16] = target: T15, panel of human receptors and channels (Homo sapiens, UniProt P43681); format: binding; conditions: N neuronal α4β2 (h) (agonist radioligand); Rep1, Rep2, Mean
T15 construct: purchased Eurofins CEREP
T15 sequence (P43681 27-627): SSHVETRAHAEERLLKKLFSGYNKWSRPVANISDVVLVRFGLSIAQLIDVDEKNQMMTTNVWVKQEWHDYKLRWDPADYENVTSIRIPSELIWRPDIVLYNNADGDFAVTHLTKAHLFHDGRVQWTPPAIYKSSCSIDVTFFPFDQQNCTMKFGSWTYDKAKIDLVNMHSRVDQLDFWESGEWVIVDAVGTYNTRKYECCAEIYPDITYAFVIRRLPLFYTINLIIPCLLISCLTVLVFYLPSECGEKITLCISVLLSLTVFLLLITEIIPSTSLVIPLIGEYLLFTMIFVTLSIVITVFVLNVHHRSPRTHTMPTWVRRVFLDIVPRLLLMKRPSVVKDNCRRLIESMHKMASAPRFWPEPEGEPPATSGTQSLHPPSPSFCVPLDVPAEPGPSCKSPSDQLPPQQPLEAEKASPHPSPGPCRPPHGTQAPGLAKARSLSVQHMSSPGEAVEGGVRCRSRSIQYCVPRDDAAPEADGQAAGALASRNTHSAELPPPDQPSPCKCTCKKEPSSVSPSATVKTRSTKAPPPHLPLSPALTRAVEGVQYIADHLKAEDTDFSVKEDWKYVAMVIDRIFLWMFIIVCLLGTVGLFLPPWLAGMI

[17] = target: T16, panel of human receptors and channels (Homo sapiens, UniProt P32239); format: binding; conditions: CCK2 (CCKB) (h) (agonist radioligand); Rep1, Rep2, Mean
T16 construct: purchased Eurofins CEREP
T16 sequence (P32239 whole entry): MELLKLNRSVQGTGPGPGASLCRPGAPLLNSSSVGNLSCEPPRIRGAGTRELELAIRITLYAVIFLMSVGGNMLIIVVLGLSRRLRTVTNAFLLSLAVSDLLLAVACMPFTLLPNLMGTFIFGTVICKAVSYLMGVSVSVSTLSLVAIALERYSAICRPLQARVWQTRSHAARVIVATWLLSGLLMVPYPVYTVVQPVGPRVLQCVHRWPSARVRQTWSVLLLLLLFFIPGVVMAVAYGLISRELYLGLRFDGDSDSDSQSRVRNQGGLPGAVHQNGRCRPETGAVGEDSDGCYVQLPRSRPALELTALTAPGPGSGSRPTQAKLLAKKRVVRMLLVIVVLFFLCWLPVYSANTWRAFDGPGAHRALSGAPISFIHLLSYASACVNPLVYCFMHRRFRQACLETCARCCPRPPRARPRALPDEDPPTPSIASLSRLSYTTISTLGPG

[18] = target: T17, panel of human receptors and channels (Homo sapiens, UniProt P07550); format: binding; conditions: β2 (h) (antagonist radioligand); Rep1, Rep2, Mean
T17 construct: purchased Eurofins CEREP

[19] = target: T18, panel of human receptors and channels (Homo sapiens, UniProt P21728); format: binding; conditions: D1 (h) (antagonist radioligand); Rep1, Rep2, Mean
T18 construct: purchased Eurofins CEREP
T18 sequence (P21728 whole entry): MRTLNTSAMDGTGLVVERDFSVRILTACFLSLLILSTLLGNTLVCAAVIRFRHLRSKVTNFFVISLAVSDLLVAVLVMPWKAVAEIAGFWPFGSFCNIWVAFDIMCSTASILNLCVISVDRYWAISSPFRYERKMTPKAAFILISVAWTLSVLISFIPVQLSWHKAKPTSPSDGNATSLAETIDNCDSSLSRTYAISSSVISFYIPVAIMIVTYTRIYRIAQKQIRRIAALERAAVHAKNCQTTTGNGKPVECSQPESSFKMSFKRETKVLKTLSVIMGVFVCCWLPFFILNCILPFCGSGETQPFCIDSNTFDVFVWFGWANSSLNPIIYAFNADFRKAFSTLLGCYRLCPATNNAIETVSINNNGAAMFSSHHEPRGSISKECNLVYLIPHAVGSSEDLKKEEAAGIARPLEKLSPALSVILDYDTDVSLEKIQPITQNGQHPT

With C[C@@H](CNC(=O)[C@H](O)C(C)(C)CO)NC(=O)c1cc(F)c(F)cc1F [MMV693183] the “IC50 decrease upon knockdown (low aTc)” value (AcAS-cKD P. falciparum) was 5 fold, the “B:P” value [1] was 0.97 and the toxicity (3-day MTD2 rat study) was “no relevant toxicity was observed”. The “% Inhibition of Control Specific Binding” value [2] was -1.3% and -5.4% and -3.35%, the “% Inhibition of Control Specific Binding” value [3] was -8.7% and -7.1% and -7.9% and the “% Inhibition of Control Specific Binding” value [4] was -8.1% and -6.5% and -7.3%. For the same compound, the “% Inhibition of Control Specific Binding” value [5] was -9.2% and -5.1% and -7.15%, the “% Inhibition of Control Specific Binding” value [6] was -6.2% and -3.3% and -4.75% and the “% Inhibition of Control Specific Binding” value [7] was 3.4% and 12.9% and 8.15%. For the same compound, the “% Inhibition of Control Specific Binding” value [8] was 7.4%, the “% Inhibition of Control Specific Binding” value [9] was -13.7% and -4.2% and -8.95% and the “% Inhibition of Control Specific Binding” value [10] was 6.2% and 8% and 7.1%. For the same compound, the “% Inhibition of Control Specific Binding” value [11] was -9.8% and -18.8% and -14.3%, the “% Inhibition of Control Specific Binding” value [12] was -7.9% and -12.3% and -10.1% and the “% Inhibition of Control Specific Binding” value [13] was -10.1% and -0.3% and -5.2%. For the same compound, the “% Inhibition of Control Specific Binding” value [14] was -1.6% and 2.2% and 0.3%, the “% Inhibition of Control Specific Binding” value [15] was 0.2% and 8.4% and 4.3% and the “% Inhibition of Control Specific Binding” value [16] was -14.6% and -4.9% and -9.75%. For the same compound, the “% Inhibition of Control Specific Binding” value [17] was 10.5% and 16.3% and 13.4%, the “% Inhibition of Control Specific Binding” value [18] was 3.7% and -4.8% and -0.55% and the “% Inhibition of Control Specific Binding” value [19] was -2.9% and 0.3% and -1.3%.
